Where a name gives a salt, the structure may show the parent alone.
Experiments:
NLRP3 [1] = target: T1, NLRP3 (Homo sapiens, UniProt Q96P20); assay: THP-1 cells pyroptosis assay; type: cell-based; parameters: Seed THP-1 cells (25,000 cells/well) containing 1.0 μg/ml LPS in 40 μl of RPMI medium; host or cells: THP-1 cells; details: LPS 1 μg/ml, compound 3 hrs, nigericin 5 μM 1 hr, resazurin readout
Description: THP-1 cells (ATCC #TIB-202) were grown in RPMI containing L-glutamine (Gibco #11835) supplemented with 1 mM sodium pyruvate (Sigma #S8636) and penicillin (100 units/ml)/streptomycin (0.1 mg/ml) (Sigma #P4333) in 10% Fetal Bovine Serum (FBS) (Sigma #F0804). The cells were routinely passaged and grown to confluency (˜10^6 cells/ml). On the day of the experiment, THP-1 cells were harvested and resuspended into RPMI medium (without FBS). The cells were then counted and viability ([…]) checked by Trypan blue (Sigma #T8154). Appropriate dilutions were made to give a concentration of 625,000 cells/ml. To this diluted cell solution was added LPS (Sigma #L4524) to give a 1 μg/ml Final Assay Concentration (FAC). 40 μl of the final preparation was aliquoted into each well of a 96-well plate. The plate thus prepared was used for compound screening.
The following method step-by-step assay was followed for compound screening. • 1. Seed THP-1 cells (25,000 cells/well) containing 1.0 μg/ml LPS in 40 μl of RPMI medium (without FBS) in 96-well, black walled, clear bottom cell culture plates coated with poly-D-lysine (VWR #734-0317) • 2. Add 5 μl compound (8 points half-log dilution, with 10 μM top dose) or vehicle (DMSO 0.1% FAC) to the appropriate wells • 3. Incubate for 3 hrs at 37° C., 5% CO2 • 4. Add 5 μl nigericin (Sigma #N7143) (FAC 5 μM) to all wells • 5. Incubate for 1 hr at 37° C., 5% CO2 • 6. At the end of the incubation period, spin plates at 300×g for 3 mins and remove supernatant • 7. Then add 50 μl of resazurin (Sigma #R7017) (FAC 100 μM resazurin in RPMI medium without FBS) and incubate plates for a further 1-2 hrs at 37° C. and 5% CO2 • 8. Plates were read in an Envision reader at Ex 560 nm and Em 590 nm • 9. IC50 data is fitted to a non-linear regression equation (log inhibitor vs response-variable slope 4-parameters)

NLRP3 [2] = target: T1, NLRP3; assay: Human whole blood IL-1β release assay; type: cell-based; parameters: Plate out 80 μl of whole blood containing 1 μg/ml of LPS in 96-well, clear bottom cell culture plate; from tissue; host or cells: human whole blood from healthy donors; details: LPS 1 μg/ml, compound 3 hrs, nigericin 10 μM 1 hr, IL-1β by AlphaLisa, read-out: HWB IC50
Description: For systemic delivery, the ability to inhibit NLRP3 when the compounds are present within the bloodstream is of great importance. For this reason, the NLRP3 inhibitory activity of a number of compounds in human whole blood was investigated in accordance with the following protocol.
Human whole blood in Li-heparin tubes was obtained from healthy donors from a volunteer donor panel. • 1. Plate out 80 μl of whole blood containing 1 μg/ml of LPS in 96-well, clear bottom cell culture plate (Corning #3585) • 2. Add 10 μl compound (8 points half-log dilution with 10 μM top dose) or vehicle (DMSO 0.1% FAC) to the appropriate wells • 3. Incubate for 3 hrs at 37° C., 5% CO2 • 4. Add 10 μl nigericin (Sigma #N7143) (10 μM FAC) to all wells • 5. Incubate for 1 hr at 37° C., 5% CO2 • 6. At the end of the incubation period, spin plates at 300×g for 5 mins to pellet cells and remove […] of supernatant and add to 96-well v-bottom plates for IL-1β analysis (note: these plates containing the supernatants can be stored at −80° C. to be analysed at a later date) • 7. IL-1β was measured according to the manufacturer protocol (Perkin Elmer-AlphaLisa IL-1 Kit AL220F-5000) • 8. IC50 data is fitted to a non-linear regression equation (log inhibitor vs response-variable slope 4-parameters)

T1 sequence (Q96P20 whole entry): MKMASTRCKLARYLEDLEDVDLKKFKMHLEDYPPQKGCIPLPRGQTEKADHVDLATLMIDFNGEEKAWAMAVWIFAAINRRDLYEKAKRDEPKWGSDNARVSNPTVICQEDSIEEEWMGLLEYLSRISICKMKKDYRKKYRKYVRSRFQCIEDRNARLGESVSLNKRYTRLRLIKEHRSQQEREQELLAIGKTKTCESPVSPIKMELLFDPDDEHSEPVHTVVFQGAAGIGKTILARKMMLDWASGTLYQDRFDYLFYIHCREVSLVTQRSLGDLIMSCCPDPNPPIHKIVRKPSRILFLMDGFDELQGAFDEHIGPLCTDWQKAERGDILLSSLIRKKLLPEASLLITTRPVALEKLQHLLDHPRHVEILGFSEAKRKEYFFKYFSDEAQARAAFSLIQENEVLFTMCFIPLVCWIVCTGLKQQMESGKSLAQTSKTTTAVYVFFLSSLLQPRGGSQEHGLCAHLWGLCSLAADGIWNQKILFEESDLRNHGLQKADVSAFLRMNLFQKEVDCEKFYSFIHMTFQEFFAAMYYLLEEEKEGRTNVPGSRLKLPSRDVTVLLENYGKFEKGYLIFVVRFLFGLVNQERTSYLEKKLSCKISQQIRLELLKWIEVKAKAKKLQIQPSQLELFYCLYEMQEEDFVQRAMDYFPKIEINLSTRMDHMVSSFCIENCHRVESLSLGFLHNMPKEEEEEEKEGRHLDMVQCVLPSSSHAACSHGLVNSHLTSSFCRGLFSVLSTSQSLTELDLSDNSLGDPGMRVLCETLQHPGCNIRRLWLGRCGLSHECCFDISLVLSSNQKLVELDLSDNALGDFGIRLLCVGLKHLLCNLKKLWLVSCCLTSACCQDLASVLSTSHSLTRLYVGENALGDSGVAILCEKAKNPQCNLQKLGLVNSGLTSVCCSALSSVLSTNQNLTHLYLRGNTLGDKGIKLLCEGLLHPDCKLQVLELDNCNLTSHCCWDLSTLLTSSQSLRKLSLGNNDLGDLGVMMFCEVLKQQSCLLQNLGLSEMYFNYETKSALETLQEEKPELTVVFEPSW

SMILES | IC50 (NLRP3 [1]) [nM] | IC50 (NLRP3 [2]) [nM]
O=C1Nc2c(ccc3c2CCC3)-c2ccnc(c2)OCCc2cccc(c2)S(=O)(=O)N1 [Example 31, 22-oxa-14λ^6-thia-11,13,24-triaza-pentacyclo-[21.3.1.1^15,19.0^2,10.0^5,9]-octacosa-1(26),2,4,9,15(28),16,18,23(27),24-nonaene-12,14,14-trione, sodium salt] | ≤ 100 | 100 to 500
O=C1Nc2c(ccc3c2CCC3)-c2ccnc(c2)OC2CCC(C2)Cn2ccc(n2)S(=O)(=O)N1 (stereo not drawn) [Example 46, 24-oxa-14λ^6-thia-11,13,18,26,31-pentaazahexacyclo-[23.3.1.1^15,18.1^20,23.0^2,10.0^5,9]hentriaconta-1(28),2,4,9,15(31),16,25(29),26-octaene-12,14,14-trione] | 1000 to 5000 | 1000 to 5000
Cc1cc2c(c3c1-c1ccnc(c1)OCC(C)(C)n1ccc(n1)S(=O)(=O)NC(=O)N3)CCO2 [Example 37, 3,19,19-trimethyl-6,21-dioxa-14λ^6-thia-11,13,18,23,27-pentaaza-pentacyclo[20.3.1.1^15,18.0^2,10.0^5,9]-heptacosa-1(25),2(10),3,5(9),15(27),16,22(26),23-octaene-12,14,14-trione, sodium salt] | ≤ 100 | ≤ 100
CC1(C)COc2cc(ccn2)-c2c(F)cc3c(c2NC(=O)NS(=O)(=O)c2ccn1n2)CCC3 [Example 34, 3-fluoro-19,19-dimethyl-21-oxa-14λ^6-thia-11,13,18,23,27-pentaazapentacyclo-[20.3.1.1^15,18.0^2,10.0^5,9]heptacosa-1(25),2,4,9,15(27),16,22(26),23-octaene-12,14,14-trione] | ≤ 100 | 100 to 500
CC1(C)COc2cc(ccn2)-c2ccc3c(c2NC(=O)NS(=O)(=O)c2ccn1n2)CCC3 [Example 11, 19,19-dimethyl-21-oxa-14λ^6-thia-11,13,18,23,27-pentaaza-pentacyclo[20.3.1.1^15,18.0^2,10.0^5,9]-heptacosa-1(25),2,4,9,15(27),16,22(26),23-octaene-12,14,14-trione] | 100 to 500 | 100 to 500
CC1(C)COc2cc(c(F)cn2)-c2ccc3c(c2NC(=O)NS(=O)(=O)c2ccn1n2)CCC3 [Example 38, 25-fluoro-19,19-dimethyl-21-oxa-14λ^6-thia-11,13,18,23,27-pentaaza-pentacyclo[20.3.1.1^15,18.0^2,10.0^5,9]-heptacosa-1(25),2,4,9,15(27),16,22(26),23-octaene-12,14,14-trione, sodium salt] | 100 to 500 | 1000 to 5000
O=C1Nc2c(ccc3c2CCC3)-c2ccnc(c2)OCCCCCCn2ccc(n2)S(=O)(=O)N1 [Example 5, 25-oxa-14λ^6-thia-11,13,18,27,31-pentaazapentacyclo-[24.3.1.1^15,18.0^2,10.0^5,9]hentriaconta-1(30),2(10),3,5(9),15(31),16,26,28-octaene-12,14,14-trione] | 100 to 500 | 1000 to 5000
O=C1Nc2c3c(cc(F)c2-c2ccnc(c2)OCCn2cc(F)c(n2)S(=O)(=O)N1)CCC3 [Example 40, 3,16-difluoro-21-oxa-14λ^6-thia-11,13,18,23,27-pentaaza-pentacyclo[20.3.1.1^15,18.0^2,10.0^5,9]-heptacosa-1(25),2(10),3,5(9),15(27),16,22(26),23-octaene-12,14,14-trione] | ≤ 100 | 100 to 500
Cc1cc2c(c3c1-c1ccnc(c1)OCCn1cc(F)c(n1)S(=O)(=O)NC(=O)N3)CCC2 [Example 29, 16-fluoro-3-methyl-21-oxa-14λ^6-thia-11,13,18,23,27-pentaaza-pentacyclo[20.3.1.1^15,18.0^2,10.0^5,9]-heptacosa-1(25),2(10),3,5(9),15(27),16,22(26),23-octaene-12,14,14-trione, sodium salt] | ≤ 100 | 100 to 500
CN1CCOc2cc(ccn2)-c2ccc3c(c2NC(=O)NS(=O)(=O)c2ccn(n2)CC1)CCC3 [Example 8, 21-methyl-24-oxa-14λ^6-thia-11,13,18,21,26,30-hexaazapentacyclo-[23.3.1.1^15,18.0^2,10.0^5,9]triaconta-1(28),2,4,9,15(30),16,25(29),26-octaene-12,14,14-trione] | 500 to 1000 | 500 to 1000
O=C1Nc2c(ccc3c2CCC3)-c2ccnc(c2)OCCCCCn2cc(cn2)S(=O)(=O)N1 [Example 6, 24-oxa-14λ^6-thia-11,13,17,18,26-pentaazapentacyclo-[23.3.1.1^15,18.0^2,10.0^5,9]triaconta-1(28),2,4,9,15(30),16,25(29),26-octaene-12,14,14-trione] | 100 to 500 | 1000 to 5000
Cc1c2ccnc1OCC(C)(C)n1ccc(n1)S(=O)(=O)NC(=O)Nc1c-2ccc2c1CCC2 [Example 45, 19,19,26-trimethyl-21-oxa-14λ^6-thia-11,13,18,23,27-pentaaza-pentacyclo[20.3.1.1^15,18.0^2,10.0^5,9]-heptacosa-1(25),2,4,9,15(27),16,22(26),23-octaene-12,14,14-trione, sodium salt] | 1000 to 5000 | 1000 to 5000
CN1CCOc2cc(ccn2)-c2ccc3c(c2NC(=O)NS(=O)(=O)c2ccn(n2)C(C)(C)C1=O)CCC3 [Example 13, 19,19,21-trimethyl-24-oxa-14λ^6-thia-11,13,18,21,26,30-hexaazapentacyclo-[23.3.1.1^15,18.0^2,10.0^5,9]triaconta-1(28),2,4,9,15(30),16,25(29),26-octaene-12,14,14,2o-tetrone] | 100 to 500 | 500 to 1000
CC1(C)COc2cc(ccn2)-c2ccc3c(c2NC(=O)NS(=O)(=O)c2nn1cc2F)CCC3 [Example 27, 16-fluoro-19,19-dimethyl-21-oxa-14λ^6-thia-11,13,18,23,27-pentaaza-pentacyclo[20.3.1.1^15,18.0^2,10.0^5,9]-heptacosa-1(25),2,4,9,15(27),16,22(26),23-octaene-12,14,14-trione, sodium salt] | ≤ 100 | 100 to 500
CC(C)c1cc(F)cc2c1NC(=O)NS(=O)(=O)c1ccn(n1)CCCCCOc1cc-2ccn1 [Example 10, 4-fluoro-6-(propan-2-yl)-21-oxa-11λ^6-thia-8,10,15,23,27-pentaazatetracyclo-[20.3.1.1^12,15.0^2,7]heptacosa-1(25),2(7),3,5,12(27),13,22(26),23-octaene-9,11,11-trione] | 500 to 1000 | 1000 to 5000
O=C1Nc2c3c(cc4c2C(CCCCn2ccc(n2)S(=O)(=O)N1)CC4)CCC3 (racemic) [Example 49, 10λ^6-thia-6,11,13,25-tetraazapentacyclo[12.9.1.1^6,9.0^15,19.0^21,24]pentacosa-7,9(25),14,19,21(24)-pentaene-10,10,12-trione] | 1000 to 5000 | 
O=C1Nc2c(ccc3c2CCC3)-c2cccc(c2)OCCCn2ccc(n2)S(=O)(=O)N1 [Example 21, 22-oxa-14λ^6-thia-11,13,18,28-tetraazapentacyclo-[21.3.1.1^15,18.0^2,10.0^5,9]-octacosa-1(26),2,4,9,15(28),16,23(27),24-octaene-12,14,14-trione] | 1000 to 5000 | 
O=C1Nc2c(ccc3c2CCC3)-c2ccnc(c2)OCc2cc(nn2C2CC2)S(=O)(=O)N1 [Example 16, 17-cyclopropyl-20-oxa-14λ^6-thia-11,13,16,17,22-pentaazapentacyclo-[19.3.1.1^15,18.0^2,10.0^5,9]hexacosa-1(24),2,4,9,15,18(26),21(25),22-octaene-12,14,14-trione] | 1000 to 5000 | 

Source: patent publication US20220289766A1 (INFLAZOME LIMITED, priority 2019, published 2022)
